Source: patent US20260355330A1, “CELL PENETRATING PEPTIDES AND USES THEREOF” (VECTIOPEP OÜ, priority 2022, published 2026)
“Also recorded” adds a separate entry of the source.

Tests used:
CHO-K1 cells [1] = assay: Delivery of reporter mRNA with CPPs in cell culture (luciferase luminescence 24 h post-transfection); assay type: cell-based; settings: for Average RLU/mg (reporter levels post-transfection of mRNA): firefly luciferase mRNA, 0.1 μg per well, charge ratio 3:1, serum containing media, 24 h, RLU normalised to total protein in lysate; for Efficiency of mRNA transfection/delivery: in words, FIG. 1 / Table 2, cell culture
Method in brief: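 CHO-K1 cells (10,000/well) transfected in 10% FBS DMEM with 0.1 μg firefly luciferase mRNA complexed with CPP at 3:1 charge ratio (peptide excess). Luminescence read in lysates 24 h later, normalised to BCA total protein (RLU/mg).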

[2] = in words; previously reported; cited from earlier work
[3] = tested on: liver, spleen, lung, kidney, heart and thymus of Balb/c mice; assay: Biodistribution of reporter levels post-transfection of mRNA or pDNA with CPPs in vivo (tissue homogenate)
Description: FIG. 3: Biodistribution of reporter levels post-transfection of mRNA or pDNA with NFs or PFs CPPs in vivo. Reporter gene product levels were evaluated from the whole tissue homogenates collected post mortem. Results are shown as the fold change to mRNA or pDNA treated mice.
The transfection complexes (CPP/mRNA) were formed using 10 μg of mRNA mixed with each peptide at indicated charge ratios (CRs) in MQ water in a final volume of 100 μl. CRs were calculated theoretically and account for both the positive charges of the peptide and negative charges of the nucleic acid. The transfection complexes (CPP/mRNA and CPP/pDNA) were formed using 50 μg of mRNA mixed with each peptide at indicated charge ratios (CRs) in MQ water in a final volume of 168 μl. The complexes were incubated for 30 minutes at room temperature and then mixed with equal volume of 10% glucose (resulting in a final solution of 5% glucose in a total volume of 200 μl for 10 μg dose groups and 336 μl for 50 μg dose groups) and immediately injected intravenously via the tail vein.
The reporter gene (luciferase) expression levels were evaluated from the tissue homogenate post mortem 16-24 h after single injection.
In order to determine to which organs in vivo mRNAs may be delivered to with NickFect or PepFect CPPs, mRNA complexes with NF55, NF71 and PF14 were formed and injected through the tail vein of Balb/c mice (FIG. 3A). The organs were harvested 24 hours after the single injection and reporter signal was measured from whole tissue homogenates. The biodistribution of reporter levels was measured in liver, spleen, lung, kidney, heart and thymus.
In order to compare the biodistribution profiles between harvested organs when using either mRNA or pDNA as cargo, NF424 was used to transfect these 2 types of nucleic acids in vivo (FIG. 3B and Table 4).

[4] = in words; previously reported; cited from earlier work; remark: listed apart in the source
CHO-K1 cells [5] = assay: Comparison of reporter levels in cells post-transfection of pDNA or mRNA delivered by CPPs; assay type: cell-based; settings: in words, FIG. 2
Description: FIG. 2: Comparison of reporter levels in cells post-transfection of pDNA or mRNA delivered by CPPs (P14, NF55 and NF71; relative light units normalised to total protein in the cell lysate (RLU/mg)). Naked mRNA and untreated cells (UT) were used as controls.
Adherent CHO-K1 cells were grown in Dulbecco's Modified Eagle's Medium (DMEM), which were supplemented with 0.1 mM non-essential amino acids, 1.0 mM sodium pyruvate, 100 U/ml penicillin, and […]. For complete media, 10% (final) fetal bovine serum (FBS) was added. Cells were maintained in a humidified incubator at 37 °C, 5% CO2. Cell viability and confluence was assessed daily and the cell density was reduced regularly. For cell counting, we used the CytoSMART cell counter accompanied by 0.4% trypan blue staining prior measurement. The multi-well plates with cell cultures used for experiments were incubated in a humidified incubator at 37 °C, 5% CO2.
For in vitro experiments 0.1 μg of nucleic acid (plasmid DNA (pDNA) or mRNA) was used per 96-well plate well. For CPP/NA complex formation, the diluted NA was mixed with CPP in water. Complexes were formed based on the theoretical charge ratio (CR) of positive charges from the peptide in excess to the negative charges from nucleic acid backbone, at charge ratio 3:1 with peptide in excess. […]
For reporter luminescence (expressed from firefly luciferase encoding mRNA or plasmid pDNA) assessment in adherent cell culture, 10,000 cells per 96-well plate well were seeded in 100 μl of media one day prior to transfection. […]
24 hours post-transfection, the media was aspirated, cells were washed with 1×PBS, and 30 μl of lysis buffer (0.1% Triton X100 in 1×PBS) was added. […] From the lysate, 20 μl was transferred to a black frame white well 96-well plate for luminescence measurement after addition of substrate luciferin (PerkinElmer) in buffer. The luminescence signal was detected with GloMax® 96 microplate luminometer equipped with GloMax® 1.9.2 software (Promega). […]

spleen of BALB/c mice = assay: In vivo delivery of mRNA with CPPs - reporter levels in the spleen; settings: mRNA, tail vein injection, spleens harvested 16 hours after single injection, whole tissue homogenate
Method in brief: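 CPP/mRNA complexes were formed at the indicated charge ratios in water for 30 min at room temperature, using 10 or 50 μg mRNA, then brought to 5% glucose. Complexes were injected intravenously via the tail vein into BALB/c mice. Spleens were harvested 16 h after the single injection, and luciferase (RLU) was measured in whole-tissue homogenate.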

[6] = mRNA delivery, i.v. tail vein, 24 h after single injection, FIG. 3: fold change to mRNA or pDNA treated mice

## NF71: SEQ ID NO: 14; HHYHHGO*ILLKALKALAKAIL; control/comparator construct
CHO-K1 cells [1]
  Average RLU/mg (reporter levels post-transfection of mRNA): 3 505 987 RLU/mg
  Efficiency of mRNA transfection/delivery: not efficient for mRNA delivery
[2]
  siRNA delivery efficiency: very efficient for siRNA and miRNA delivery; also recorded: very efficient for siRNA and miRNA transfections; also recorded: the most efficient, even more efficient than NF55
[3]; in words, mRNA cargo
  Organ distribution of mRNA delivery: delivered mRNA mostly into the spleen, with very low transfection levels seen in other organs
[3]; [6]
  Reporter level, Liver: 8
  Reporter level, Lung: 6
  Reporter level, Spleen: 124
[4]
  miRNA delivery efficiency: very efficient for siRNA and miRNA delivery; also recorded: very efficient for siRNA and miRNA transfections; also recorded: the most efficient in vivo
CHO-K1 cells [5]; mRNA cargo
  Efficiency of mRNA transfection (parallel pDNA/mRNA comparison): not effective tools for mRNA transfection/delivery; also recorded: not an efficient delivery vector for mRNA
CHO-K1 cells [5]; pDNA cargo
  Efficiency of pDNA transfection (parallel pDNA/mRNA comparison): very efficient transfection reagents for pDNA delivery

## NF70: SEQ ID NO: 13; HHHHYHHGO*ILLKALKALAKAIL; control/comparator construct [reference compound]
CHO-K1 cells [1]
  Average RLU/mg (reporter levels post-transfection of mRNA): 919 720 RLU/mg
  Efficiency of mRNA transfection/delivery: not efficient for mRNA delivery
[2]
  siRNA delivery efficiency: very efficient for siRNA and miRNA delivery; also recorded: the most efficient, even more efficient than NF55
[4]
  miRNA delivery efficiency: very efficient for siRNA and miRNA delivery
Spleen of BALB/c mice
  Reporter levels in the spleen (RLU): 8 000 RLU
